Source: patent US12582641B2, “Sulfur-containing compound based on glutarimide skeleton and application thereof” (SHANGHAITECH UNIVERSITY, priority 2019, dated 2026)

Legend:
ALCL cell line SR = experiment: Proliferation inhibition (IC50) in lymphoma cell line SR, cell viability assay; assay type: cell-based; settings: 72 h, SR cells, WST reagent
Excerpt: (§1) We tested the anti-proliferation activities of the compounds of the present invention in ALCL cell line SR and Mantle cell lymphoma Mino (which overexpressed IKZF1/3, but were not sensitive to immunomodulatory drugs) through a dose-dependent manner. […] The experiment was repeated more than three times.

[1] = system: Mantle cell lymphoma Mino; experiment: Proliferation inhibition (IC50) in lymphoma cell line Mino, cell viability assay; assay type: cell-based; settings: Mino cells; for IC50: 72 h, WST reagent
Excerpt: as §1

MM.1S cells = experiment: Proliferation inhibition (IC50) in MM.1S cells, cell viability assay; settings: Homo sapiens, MM1.S, 72 h, read-out: IC50 (nM), proliferation inhibitory activity of MM.1S cells (half inhibitory concentration)
Procedure: MM.1S (B lymphoblast) was purchased from ATCC. Complete medium was RPMI1640 supplemented with 10% FBS and 1% Penicillin-Streptomycin. The cells used were identified as correct cells by STR cells, and were negative for mycoplasma through routine inspections.
IC50 values of the compounds of the present disclosure were measured using Cell Titer Blue, Cell Titer GLO, or WST reagent from Promega Company. Assay details are as follows: Cells were seeded in 100 μL RPMI1640 complete medium containing serum at a density of 15,000 cells/well. After 24 h, the inoculated cells were treated with diluted commercial inhibitor and the compounds of the present disclosure to be tested after serial dilution. After the cells were treated with the compounds of the present disclosure to be tested for 72 h, cell viability was determined after adding the cell viability detection kit listed above according to the reagent operating instructions. The negative control was DMSO, and the positive control was a commercial inhibitor, both of which were used to treat the cells through the same method as that of the compounds of the present disclosure. The growth inhibition of the compounds of the present disclosure on cells was plotted by Prism Graphpad software, and the IC50 values of the compounds of the present disclosure were calculated therefrom.
We tested the activities of the compounds of the present invention in MM.1S cell (which overexpressed IKZF1/3 and is highly sensitive to immunomodulatory drugs) through a dose-dependent manner. The cells were treated with the compounds of the present invention at 10 different successively decreasing concentrations (starting at the highest concentration of 10 μM; 5-fold serial dilutions) for 72 h, and then the cell viability determination was performed in accordance with CCK-8 reagent operating instructions. The experiment was repeated more than three times.

| Compound | IC50 (ALCL cell line SR; Homo sapiens, SR) [nM] | IC50 (ALCL cell line SR) [nM] | IC50 ([1]; Homo sapiens, MINO) [nM] | IC50 [1] [nM] | IC50 times lower than Pomalidomide ([1]; versus pomalidomide IC50 48 nM) [times] | IC50 (MM.1S cells) [nM] |
| --- | --- | --- | --- | --- | --- | --- |
| O=C1CCC(N2Cc3c(SCc4ccc(CN5CCCCC5)cc4)cccc3C2=O)C(=O)N1 (stereo not drawn) [SIAIS1220165, 3-(1-oxo-4-((4-(piperidin-1-ylmethyl)benzyl)thio)isoindolin-2-yl)piperidine-2,6-dione] | 1.89 |  | 5.83 |  |  | 0.09 |
| O=C1CCC(N2Cc3c(SCc4ccc(CN5CCOCC5)cc4F)cccc3C2=O)C(=O)N1 (stereo not drawn) [SIAIS1227181, 3-(4-((2-fluoro-4-(morpholinomethyl)benzyl)thio)-1-oxoisoindolin-2-yl)piperidine-2,6-dione] |  |  |  |  |  | 0.113 |
| O=C1CCC(N2Cc3c(SCc4ccc(CNC(C5CC5)C5CC5)cc4)cccc3C2=O)C(=O)N1 (stereo not drawn) [SIAIS1227183, 3-(4-((4-(((dicyclopropylmethyl)amino)methyl)benzyl)thio)-1-oxoisoindolin-2-yl)piperidine-2,6-dione] |  |  |  |  |  | 0.039 |
| O=C1CCC(N2Cc3c(SCc4ccc(CNC56CC7CC(CC5C7)C6)cc4)cccc3C2=O)C(=O)N1 (stereo not drawn) [SIAIS1228019, 3-(4-((4-(((hexahydro-2,5-methanopentalen-3a(1H)-yl)amino)methyl)benzyl)thio)-1-oxoisoindolin-2-yl)piperidine-2,6-dione] |  |  |  |  |  | 0.051 |
| Nc1cccc2c1C(=O)N(C1CCC(=O)NC1=O)C2=O (stereo not drawn) [pomalidomide, reference compound] |  |  | 48 | 48 |  | 9.4 ± 1.3 |

More lines, now with the values ahead:

| IC50 (ALCL cell line SR; Homo sapiens, SR) [nM] | IC50 (ALCL cell line SR) [nM] | IC50 ([1]; Homo sapiens, MINO) [nM] | IC50 [1] [nM] | IC50 times lower than Pomalidomide ([1]; versus pomalidomide IC50 48 nM) [times] | IC50 (MM.1S cells) [nM] | Compound |
| --- | --- | --- | --- | --- | --- | --- |
| ~0.3 | 0.297 | ~0.29 | 0.289 | 165 | 0.018 ± 0.005 | O=C1CCC(N2Cc3c(SCc4ccc(CCNC56CC7CC(CC(C7)C5)C6)cc4)cccc3C2=O)C(=O)N1 (stereo not drawn) [SIAIS287128, 3-(4-((4-(2-(adamantan-1-ylamino)ethyl)benzyl)thio)-1-oxoisoindolin-2-yl)piperidine-2,6-dione] |
| 7.42 |  | 0.776 |  |  | 0.02 | O=C1CCC(N2Cc3c(SCCCCCCCNC45CC6CC(CC(C6)C4)C5)cccc3C2=O)C(=O)N1 (stereo not drawn) [SIAIS1220155, 3-(4-((7-((adamantan-1-yl)amino)heptyl)thio)-1-oxoisoindolin-2-yl)piperidine-2,6-dione] |
|  |  |  |  |  | 0.029 | O=C1CCC(N2Cc3c(SCc4ccc(CNC56CC7CC(CC(C7)C5)C6)cc4F)cccc3C2=O)C(=O)N1 (stereo not drawn) [SIAIS1227179, 3-(4-((4-(((adamantan-1-yl)amino)methyl)-2-fluorobenzyl)thio)-1-oxoisoindolin-2-yl)piperidine-2,6-dione] |
|  |  |  |  |  | 0.028 | O=C1CCC(N2Cc3c(SCCCCCCCNC45CC6CC(CC4C6)C5)cccc3C2=O)C(=O)N1 (stereo not drawn) [SIAIS1228055, 3-(4-((7-((hexahydro-2,5-methanopentalen-3a(1H)-yl)amino)heptyl)thio)-1-oxoisoindolin-2-yl)piperidine-2,6-dione] |
|  |  |  |  |  | 0.037 | O=C1CCC(N2Cc3c(SCCCCCCCN[C@H]4C[C@H]5CC[C@@H]4C5)cccc3C2=O)C(=O)N1 (stereo partly drawn) [SIAIS1228059, 3-(4-((7-(((1R,2S,4S)-bicyclo[2.2.1]heptan-2-yl)amino)heptyl)thio)-1-oxoisoindolin-2-yl)piperidine-2,6-dione] |
